Measurements published in patent publication US8367642B2, “Methods of preventing or treating diseases and conditions using complex carbohydrates” (Dermal Research Laboratories, Inc., priority 2000, dated 2013).

Key:
joint pain = conditions: oral doses between 1000 and 3000 mg/day (>15 mg/Kg); cited from earlier work
interstitial cystitis = test: Interstitial cystitis patient (Example 8); type: in vivo, human; conditions: 100 mg per day of macrodantin and 20 mg per day of feldene, earlier treatment
Procedure: Additionally, they had taken 200 mg TID of Elmiron to reduce the inflammation in the bladder lining. […] In order to sleep they took Prosed/DS, Ultram, Hydroxyzine HCl, Cardura, Amitriptyline. Sometimes all were taken at some time during the day or night. […] This patient was supplied with the mixed molecular weight preparation of sodium hyaluronate as described in EXAMPLE 1. They were also supplied with a topical preparation containing 1% wt/vol. Sodium hyaluronate at a molecular weight of <30,000 combined with 1% Oil of Wintergreen, 0.5% Spearmint Oil and 0.2% Peppermint Oil. They took 10 mg of the oral preparation 4 times per day. The last dose was taken before going to bed. Additionally, at bedtime, they rubbed their lower abdomen (over the bladder) with the topical preparation.

ADHD = test: child with ADHD, behaviour scores (Example 7, FIG. 2); type: in vivo, human; conditions: prescribed daily, earlier treatment
Excerpt: The subject child was a person who has suffered with ADHD all their life. […] Additionally, their behavior was such that they could not socialize with other children or with adults. When in contact with other children they were unable to play, often became angered and caused physical harm to others. They had been under treatment by several physicians, psychologists and allergists all their life but none were able to help their condition. The allergists determined that they had allergies to most all foods, dust, molds, soaps and just about everything in their environment. At one time they were prescribed Ritalin daily. […]
This child attended a special school in which their Teachers reported their daily activity to their parents so that they could try to monitor their eating habits. […] Their response was monitored by using the numerical score provided by their teachers and averaging it with a numerical score of their behavior at home provided by their parents. […] Their parents have commented that they have awakened in the morning and is happy, cheerful and cooperative in getting ready for school. […] If their behavior was belligerent, bossy, angry or non-cooperative they were scored as a −40 for the day. If their reactions to foods or environmental stimuli produced such a response it was recorded as a −40. If they responded as a normal person, the score was recorded as 0. […]

[1] = system: Attention Deficit Hyperactivity Disorder (ADHD) complicated by Turret's Syndrome; test: Treatment of a child with ADHD complicated by Turret's Syndrome (Example 2); type: in vivo, human; conditions: earlier treatment, discontinued 1.5 year before
Procedure: This treatment was not complicated by concurrent treatment with drugs such as Ritalin as their parents were adverse to using this medication. Therefore, any response observed was related to the use of the complex carbohydrates of the present invention. They took 10 mg in the morning and 10 mg in the evening, using the solution as a mouthwash (holding it in their mouth for about 10 to 20 seconds and then swallowing). […] However, within 15 minutes of their receiving the missing dose, they became calm and returned to normal. This child has remained totally under control for 6 months. This had never been observed before, even when they were taking Ritalin. […] It has been concluded that a disease typically thought to be related to a nervous disorder or to allergies was treatable by the complex carbohydrates of the present invention.

[2] = system: attention deficit disorder (ADD); test: Adult with attention deficit disorder, daily response (Example 5, FIG. 1); type: in vivo, human; conditions: earlier treatment
Excerpt: The subject adult was a person who had suffered all their life with attention deficit disorder (ADD).
They never knew what their problem was until recently when they were diagnosed. They described their childhood as unfocused and explained that they felt as though they were in a constant mental fog—unable to think clearly, or for that matter, unable to focus on a thought at all. […] Exposure to only a few minutes in a moldy room caused this individual to become dazed, unable to think, focus or even stay awake. They had only been able to do menial jobs. They spent most of their time staring out the window with no thoughts in their mind and, even if they tried, could not focus on a thought or task. They described themself as believing all their life that they were just stupid and unable to learn. They had been to multiple physicians and psychiatrists seeking treatment with no success. They had taken Ritalin with little relief. It allowed them to function partially but they were always tired and unable to focus on anything but the simplest of tasks. They agreed to take the oral sodium hyaluronate product and their family would report how they reacted. […]
FIG. 1 plots the response of this patient while taking the compositions of the present invention. […] If there were no significant negative or positive responses during a day, the reaction rate was recorded as 0. […]

lick granulomas = test: Lick granuloma of a Labrador retriever (Example 12); type: in vivo, dog; conditions: cortisone injections and hydrocortisone creams
Procedure: An eleven year old Labrador retriever had suffered from lick granulomas for at least 3 years. […] This dog's granuloma was located on the left hind leg above the pasturn. The swelling around the leg measured 8 inches in diameter and the open wound measured 4×3 inches. […] This dog was injected with 10 mg of sodium hyaluronate having a molecular weight ranging from 30,000 to 400,000 (1.0 mL intramuscularly—equivalent to 10 mg). The open wound began to heal. This injection was followed up with topical application of a low molecular weight hyaluronic acid prepared by making a 1% (wt/vol) solution of hyaluronic acid (Medex Ltd) containing 1% Wintergreen Oil (Loranne Oil), 1% Spearmint Oil (Loranne Oil) and 0.5% Peppermint Oil (Loranne Oil). The topical formulation was applied at least two times per day. […] The dog has not licked this area since treatment began. Therefore, the complex carbohydrates of the present invention are able to successfully treat lick granulomas (a previously untreatable condition of dogs) and eliminate the cause of the licking.

chronic eczema = test: Chronic eczema with yeast infection (Example 14); parameters: species or system human; conditions: in vivo
Excerpt: A person suffered from chronic eczema—scaly and red areas on their neck and arms. They had also been diagnosed with a yeast infection associated with the eczema. […] They initially used a topical preparation prepared according to this invention. This contained a mixture of low and high molecular weight sodium hyaluronate (prepared as in EXAMPLE 1) mixed with 1% Wintergreen Oil, 1% Spearmint Oil, and 0.5% Peppermint Oil. They applied it topically for four weeks. […] However, there was still itching and redness. They then began to orally take the 1% mixture, of low and high molecular weight sodium hyaluronate described in example 1. They reported that within 2 weeks all signs of the eczema had disappeared, the itching was gone and they felt better than they had felt for years. The oral dose required was 5 mg TID for this 91 pound person. Therefore, the dose was […].

anti-coagulant activity = conditions: cited from earlier work
polymyositis = test: Polymyositis in the same patient (Example 4); type: in vivo, human; conditions: 50 mg daily, before hyaluronate
Procedure: A person suffering from colon cancer had been unable to tolerate their colostomy and demanded that their surgeon remove the colostomy and reconnect their colon. They refused chemotherapy. They were given a formulation of 1% sodium hyaluronate (Collaborative Laboratories, Inc) which was prepared with a mixture of molecular weights of hyaluronate (as described in EXAMPLE 1). When they began taking the hyaluronate preparation, their CEA was 70.1. They have taken the hyaluronate at a dose of 10 mg three times per day mucosally and after 6 months of treatment their CEA has dropped to 4.1. They have taken no other treatments. This patient had also suffered from polymyositis for approximately 15 years. For this condition they were taking 50 mg of Prednisone daily with little relief. […] After 6 months of treatment with hyaluronate, they have been able to reduce their Prednisone to 5 mg every other day. […] The polymyositis that was successfully treated in this example was thought to represent treatment of a disease associated with the adhesion cascade or autoimmune disease.

## chondroitin sulfate
Joint pain
  time until relief from joint pain: 6-9 months

## CN1C(C(=O)Nc2ccccn2)=C(O)c2ccccc2S1(=O)=O [feldene]
Interstitial cystitis
  side effects: severe side effects

## O=C1CN(/N=C/c2ccc([N+](=O)[O-])o2)C(=O)N1 [macrodantin]
Interstitial cystitis
  side effects: severe side effects

## COC(=O)C(c1ccccc1)C1CCCCN1 (centres unmarked) [Ritalin]
ADHD
  reaction while taking the drug: suffered hallucinations and became even more uncontrollable
[1]
  side effects: problems with side effects
[2]
  relief of ADD: little relief

## C[C@]12CCC(=O)C=C1CC[C@@H]1[C@@H]2C(=O)C[C@@]2(C)[C@H]1CC[C@]2(O)C(=O)CO [cortisone]
Lick granulomas
  success of earlier treatment of lick granuloma: little success
Chronic eczema
  effect of earlier treatment on eczema: no significant effect

## low molecular weight heparin
anti-coagulant activity
  anti-coagulant activity: free of anti-coagulant activity

## C[C@]12CCC(=O)C=C1CC[C@@H]1[C@@H]2[C@@H](O)C[C@@]2(C)[C@H]1CC[C@]2(O)C(=O)CO [hydrocortisone]
Lick granulomas
  success of earlier treatment of lick granuloma: little success

## C[C@]12C=CC(=O)C=C1CC[C@@H]1[C@@H]2C(=O)C[C@@]2(C)[C@H]1CC[C@]2(O)C(=O)CO [Prednisone]
polymyositis
  relief of polymyositis: little relief
